{"source": "patent US5164391A", "about": "“Hydantoin derivatives for treating complications of diabetes and circulatory diseases” (priority 1989, dated 1992)", "key": {"thoracic aorta": {"system": "thoracic aorta", "experiment": "Action to the aorta of guinea pig (relaxation of contracted spiral samples)", "design": "species or system Hartley guinea pigs", "details": "Cavia porcellus, 37° C.", "excerpt": "Hartley guinea pigs (body weight of 300-500 g) were rendered unconscious fainted by knocking their head and fixed upwardly. A thoracic aorta was taken out to prepare spiral samples, each having size of about 2×25 mm. The sample was suspended in a Magnus tube under a load of about 1 g and upper end of the sample was connected through a silk thread to a FD pick-up to record a change in isometric tension.\nComposition of Krebs-Henseleit solution:\nPrior to the experiment, the sample in the Magnus tube was left to stand, as it was, for 60 to 90 minutes and in such period of time, the Krebs-Henseleit solution was exchanged to fresh one at an interval of 20 to 30 minutes.\nWhen the contraction of the sample became constant, the compound to be tested was gradually added in a amount starting at a concentration of 10^-8, to […] to observe the contraction of the sample. Finally, papaverine was added therein, so as to make its final concentration of 2×10^-5 g/ml, to check and record also the relaxing reaction or atony caused by the papaverine."}, "right atrium": {"system": "right atrium", "experiment": "Action to heart of guinea pig: right atrium (pulsations);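 as to all read-outs here: Dash means no recognizable influence on pulsation rate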", "design": "species or system Hartley guinea pigs", "details": "right atrium, 32°±1° C.; for inhibition at 100 µM: Cavia porcellus, read-out: Pulsation", "method": "(§1) Hartley guinea pigs (body weight of 300-400 g) were rendered unconscious by knocking their head and fixed upwardly to exenterate their heart. […] The vessel was previously filled with the Krebs-Henseleit solution and the said mixed gas was continuously fed therein.\n(§2) Samples were prepared by separating from a ventricular muscle a right and left atrium, along an auricloventricular furrow or groove from the center-line of the right and left auricles.\nA contraction of the sample, due to a compound to be tested, was recorded through an FD pick-up. Concurrently, pulsations were input to a measuring unit to count and record number of the pulsations."}, "left atrium": {"system": "left atrium", "experiment": "Action to heart of guinea pig: left atrium (contraction power)", "design": "species or system Hartley guinea pigs", "details": "left atrium, 32°±1° C.", "method": "as §1, §2\nThe atrium was driven by contacting it with a platinum bipolar electrode attached to the cellfin and by stimulating the same with a rectangular pulse (1 Hz, 1 msec, 10 V). A movement of the sample was recorded by connecting the sample to a recorder through a silk thread and a FD pick-up."}, "[1]": {"system": "blood pressure and cardiac pulsation", "experiment": "Influences upon the blood pressure and cardiac pulsation in guinea pigs", "assay_type": "in vivo, Hartley guinea pigs", "details": "i.v.", "excerpt": "Influences of compounds according to the invention upon the blood pressure and cardiac pulsation were checked with use of Hartley guinea pigs, as experimental animal."}, "[2]": {"details": "contraction by KCl 2.5×10^-2 M, read-out: IC50 KCl contraction (50% relaxing)"}, "[3]": {"details": "contraction by norepinephrine 10^-6 g/ml, read-out: IC50 N.E. contraction (50% relaxing)"}, "[4]": {"details": "10 mg/kg, Example 17 marked (*) p < 0.001"}, "[5]": {"details": "10 mg/kg, Examples 16 and 17 marked (*) p < 0.001"}}, "note": "Like-named read-outs stand apart in the source and are kept apart here."}
{"molecule": "CCNC(=O)[C@@H]1C[C@]2(NC(=O)N(CCCN3CCC(O)CC3)C2=O)c2cc(F)ccc2O1", "note": "[Example 16, (2S,4S)-N-Ethyl-1'-[3-(4-hydroxypiperidin-1-yl)propyl]-6-fluoro-2',5'-dioxospiro[chroman-4,4'-imidaxolidine]-2-carboxamide]", "values": [{"measurement": "IC50", "setting": "thoracic aorta; [2]", "value": 59, "unit": "µM"}, {"measurement": "IC50", "setting": "thoracic aorta; [3]", "value": 5, "unit": "µM"}, {"measurement": "Pulsation", "setting": "right atrium; 10^-5 (M)", "value": "-"}, {"measurement": "inhibition at 100 µM", "setting": "right atrium; 10^-4 (M)", "value": "10 to 20", "unit": "%"}, {"measurement": "Contraction", "setting": "left atrium; 10^-4 (M)", "value": "-"}, {"measurement": "Contraction", "setting": "left atrium; 10^-5 (M)", "value": "-"}, {"measurement": "Change in blood pressure", "setting": "[1]; 3 mg/kg", "value": "-4.0 ± 4.0", "unit": "%"}, {"measurement": "Change in cardiac pulsation", "setting": "[1]; 3 mg/kg", "value": "-1.2 ± 1.2", "unit": "%"}, {"measurement": "Change in cardiac pulsation", "setting": "[1]; [4]", "value": "-4.7 ± 4.6", "unit": "%"}, {"measurement": "Change in blood pressure", "setting": "[1]; [5]", "value": "-21.3 ± 2.4", "unit": "%"}]}
{"molecule": "CCCCNC(=O)[C@@H]1C[C@]2(NC(=O)N(CCCN3CCC(O)CC3)C2=O)c2cc(F)ccc2O1", "note": "[Example 17, (2S,4S)-N-Butyl-1'-[3-(4-hydroxypiperidin-1-yl)propyl]-6-fluoro-2',5'-dioxospiro[chroman-4,4'-imidazolidine]-2-carboxamide]", "values": [{"measurement": "IC50", "setting": "thoracic aorta; [2]", "value": 1, "unit": "µM"}, {"measurement": "IC50", "setting": "thoracic aorta; [3]", "value": 30, "unit": "µM"}, {"measurement": "Pulsation", "setting": "right atrium; 10^-5 (M)", "value": "-"}, {"measurement": "inhibition at 100 µM", "setting": "right atrium; 10^-4 (M)", "value": "10 to 20", "unit": "%"}, {"measurement": "inhibition at 100 µM", "setting": "left atrium; Cavia porcellus, 10^-4 (M), read-out: Contraction", "value": "> 20", "unit": "%"}, {"measurement": "inhibition at 10 µM", "setting": "left atrium; Cavia porcellus, 10^-5 (M), read-out: Contraction", "value": "10 to 20", "unit": "%"}, {"measurement": "Change in blood pressure", "setting": "[1]; 3 mg/kg", "value": "-3.0 ± 3.0", "unit": "%"}, {"measurement": "Change in cardiac pulsation", "setting": "[1]; 3 mg/kg", "value": "-1.1 ± 1.1", "unit": "%"}, {"measurement": "Change in cardiac pulsation", "setting": "[1]; [4]", "value": "-48.9 ± 2.2", "unit": "%"}, {"measurement": "Change in blood pressure", "setting": "[1]; [5]", "value": "-43.8 ± 4.9", "unit": "%"}]}
{"molecule": "NC(=O)[C@@H]1C[C@]2(NC(=O)N(CCCN3CCC(O)CC3)C2=O)c2cc(F)ccc2O1", "note": "[Example 15, (2S,4S)-1'-[3-(4-Hydroxypiperidin-1-yl)propyl]-6-fluoro-2',5'-dioxospiro[chroman-4,4'-imidazolidine]-2-carboxamide]", "values": [{"measurement": "IC50", "setting": "thoracic aorta; [2]", "value": 8, "unit": "µM"}, {"measurement": "IC50", "setting": "thoracic aorta; [3]", "value": 2, "unit": "µM"}, {"measurement": "Pulsation", "setting": "right atrium; 10^-4 (M)", "value": "-"}, {"measurement": "Pulsation", "setting": "right atrium; 10^-5 (M)", "value": "-"}, {"measurement": "Contraction", "setting": "left atrium; 10^-4 (M)", "value": "-"}, {"measurement": "Contraction", "setting": "left atrium; 10^-5 (M)", "value": "-"}, {"measurement": "Change in blood pressure", "setting": "[1]; 3 mg/kg", "value": "-2.6 ± 1.8", "unit": "%"}, {"measurement": "Change in cardiac pulsation", "setting": "[1]; 3 mg/kg", "value": "0.0 ± 0.0", "unit": "%"}, {"measurement": "Change in cardiac pulsation", "setting": "[1]; [4]", "value": "-5.4 ± 2.9", "unit": "%"}, {"measurement": "Change in blood pressure", "setting": "[1]; [5]", "value": "-12.2 ± 5.6", "unit": "%"}]}
